These results are taken from PMC4039119 (Oncotarget, 2014).

For experiment [1], the system named is ITGA6 in 4T-1 cells. Put plainly: Western blot of ITGA6 expression after TGFβ treatment. Format: cell-based, murine. On the procedure: (§1) Whole cell lysates were prepared using 4% (w/v) CHAPS buffer while tumor lysates were prepared by homogenizing the tumors in RIPA lysis buffer. Proteins from control and treated samples were subjected to SDS-PAGE and the segregated proteins were transferred to PVDF membrane. The membrane was developed as described by us previously. All antibodies used in the study were purchased from Cell signaling except HER2 (Abcam, Cambridge, MA), ITGB4 (Santacruz Biotechnology, Dallas, TX), TWIST (Santacruz Biotechnology, Dallas, TX), phospho Akt (S473) (Santacruz Biotechnology, Dallas, TX) and Caspase 3 (Santacruz Biotechnology, Dallas, TX).

The test system of experiment [2] is ITGA6 in MDA-MB-231 cells. Described as above. Format: cell-based, human. The protocol: as §1
For experiment [3], the system named is 4T-1 cells. The experiment in a line: Annexin V-FITC apoptosis assay. It is filed as cell-based, murine. The settings on record: 4T-1, 75nM CuB for 72h. The protocol: (§2) Apoptosis assay was performed using a kit (BD Biosciences, CA) according to manufacturer's instructions. Approximately, 0.1x10^6 cells were plated in 6-well plate and left overnight for attachment. […] A 5.0μl of Annexin V-FITC and 5μl of propidium iodide (BD Biosciences, San Jose, CA) were added to the 100μl of suspension and incubated for additional 20 min at room temperature in dark. Total sample volume was made up to 200μl with binding buffer. Samples were analyzed by flow cytometer after vortexing (Accuri C6, MI).

Experiment [4] deals with MDA-MB-231, SKBR3, MCF-7 and 4T-1 breast cancer cells. Put plainly: Sulforhodamine B cell survival assay, range over the breast cancer cell panel. It is filed as cell-based. The protocol:
The cells were fixed with ice cold 10% trichloroacetic acid, washed and stained with sulforhodamine B (SRB) dye and the optical density was measured in Tris base solution using plate reader, after washing the dye with 1% acetic acid solution as described by us previously.

For experiment [5], the system named is non-small lung carcinoma tumor xenografts. The settings on record: 1mg/kg every alternate day for 5 weeks; cited from earlier work.
The test system of experiment [6] is 4T-1 orthotopic tumors. The experiment in a line: Orthotopic breast tumor therapy model. It is filed as in vivo, female BALB/c mice. The settings on record: 1mg/kg i.p. every third day. On the procedure:
In another experiment, female BALB/c mice (4-6 weeks old) were obtained from Jackson Laboratories (Ban harbor, Maine, USA) and maintained under controlled humidity and temperature conditions. The use of BALB/c mice and their treatment was approved by the Institutional Animal Care and Use Committee (IACUC), Texas Tech University Health Sciences Center, and the experiments were conducted in strict compliance with the regulations. Exponentially growing 4T-1 cells were harvested, washed and re-suspended in PBS at a density of 1x10^6 cells per ml with 50% matrigel. A suspension of 0.1mL containing 0.1x10^6 cells was injected in the mammary fat pads of the recipient mice. Tumor volumes and animal weights were measured every alternate day as described by us previously. When the tumors reached a size of about 30-50 mm3, mice were randomly segregated into two groups with eight mice in each group. […] The control mice received vehicle alone. Mice were sacrificed on day 28 by CO2 overdose and death was confirmed by cervical dislocation in accordance with IACUC guidelines. The tumors were removed aseptically from each mouse, weighed and snap frozen in liquid-nitrogen for further analysis.

Experiment [7] has as its system MDA-MB-231 orthotopic tumor. The settings on record: after 36 days, cited from earlier work.
Experiment [8] deals with MDA-MB-231 cells. The experiment in a line: Annexin V-FITC apoptosis assay. Format: cell-based, human. The following applies: MDA-MB-231, 75nM CuB for 72h. On the procedure:
as §2

Experiment [9] concerns MCF-7 cells. The experiment in a line: Annexin V-FITC apoptosis assay. Format: cell-based, human. The settings on record: MCF-7, 75nM CuB for 72h. On the procedure:
as §2

In experiment [10] the test system is SKBR3 cells. The experiment in a line: Annexin V-FITC apoptosis assay. It is filed as cell-based, human. The following applies: SKBR3, 75nM CuB for 72h. On the procedure:
as §2

Experiment [11] deals with melanoma tumors. The settings on record: 1mg/kg intraperitoneal thrice a week, after 23 days; cited from earlier work.
In experiment [12] the test system is MDA-MB-231 orthotopic tumors. The experiment in a line: Orthotopic breast tumor therapy model. It is filed as in vivo, female athymic nude mice. The following applies: 2mg/kg oral gavage every day. On the procedure: Female athymic nude mice (4-6 weeks old) were obtained from Jackson Laboratories (Ban harbor, Maine, USA) and maintained under specific pathogen-free conditions. The use of athymic nude mice and their treatment was approved by the Institutional Animal Care and Use Committee (IACUC), Texas Tech University Health Sciences Center, and the experiments were conducted in strict compliance with the regulations. Mice were given antioxidant-free AIN-76A special diet (TestDiet, Richmond, IN) one week before starting the experiment. Exponentially growing MDA-MB-231 cells were harvested, washed and resuspended in PBS at a density of 50x10^6 cells per ml with 80% matrigel (BD Biosciences, San Jose, CA). A suspension of 0.1mL containing 5x10^6 cells was injected in the mammary fat pads of the recipient mice. Tumor volumes and animal weights were measured twice a week as described by us previously. When the tumors reached a size of about 50-80 mm^3, mice were randomly segregated into two groups with ten mice in each group. […] Mice were sacrificed on day 60 by CO2 overdose and death was confirmed by cervical dislocation in accordance with IACUC guidelines. The tumors were dissected out aseptically from each mouse, weighed and snap frozen in liquid-nitrogen for western blot analysis.

Experiment [13] concerns normal human melanocyte epithelial (PIG1) cells. The experiment in a line: Sulforhodamine B cell survival assay in normal cells. It is filed as cell-based. The following applies: 50nM CuB for 72h. The protocol:
The cells were fixed with ice cold 10% trichloroacetic acid, washed and stained with sulforhodamine B (SRB) dye and the optical density was measured in Tris base solution using plate reader, after washing the dye with 1% acetic acid solution as described by us previously. […]
vivo breast tumor growth suppression – Gupta et al
24, 48h and 72h. Cell survival was measured with sulforhodamine B assay to estimate the IC50 values. The ex periments were repeated at least three times with 4 replicates in each ex periment. B. Comparison of the cell survival of PIG1 and the breast cancer cell lines at 50nM […]
(1 picture or pasted object on this page, not shown here)

Like-named read-outs stand apart in the source and are kept apart here.

With TGFβ, the “increase of ITGA6 expression” value in [1] and in experiment [2] was “about 1.5 fold” throughout.

For orientation: IC50 means the point on the concentration scale where inhibition reaches its midpoint. Read a low IC50 as higher potency. Take Cucurbitacin B [CuB]: the “apoptosis induced (cells)” value in experiment [3] was “about 60%”; in [8], “about 60%”; in [9], “about 60%”; in experiment [10], “about 80%”. Further, the “growth inhibition of cancer cell lines SKBR3, MDA-MB-231, MCF-7 and 4-T1” value in experiment [4] (50nM CuB for 72h) was 50-70%. Further, in experiment [4] (after 48 and 72 h of treatment), the IC50 lay in the range of 18 to 50 nM. Also, in experiment [5], the tumor volume reduction is 70%. The substance also came in with a tumor weight reduction in experiment [6] (day 28) of 27%. In addition, the “tumor volume in treated group” value turned out to be 1446.7±142.6 mm^3 in [6] (day 28, n=8) and 111.3±18.4 mm^3 in experiment [12] (day 60, n=10). The tumor volume suppression is recorded as 42% in [7] (0.5 mg/kg i.p.) and 55% in experiment [7] (1mg/kg i.p.). Further, the “suppression of tumor growth” value in experiment [11] was “about 50%”. Further, the “tumor volume reduction as compared to control” value in experiment [12] (day 60) worked out at 55%. Moreover, the “tumor weight less than control” value in [12] (tumors dissected at day 60) was “about 53%”. The “growth inhibition of PIG1 cells” value in [13] is on record as 20-30%.
